# Laboratory results published in patent publication US20210379066A1, “COMBINATIONS OF POSITIVE ALLOSTERIC MODULATORS AND NICOTINIC ACETYLCHOLINE RECEPTOR AGONISTS FOR TREATING OCULAR CONDITIONS” (Oyster Point Pharma, Inc., priority 2018, published 2021).
# Entries after “also recorded” stand apart in the source; their conditions may differ. Structures can show the parent of a compound that is named as a salt.
# Tests used:
# Type in all cases: cell-based
# [1] = target: T1, human alpha4beta2 nAChRs (Homo sapiens, UniProt P17787+P43681); assay: Positive allosteric modulation of agonist-evoked currents, two-electrode voltage clamp in Xenopus oocytes (Example 1)
# T1 construct: expressed in transfected cells; host or cells: Xenopus laevis oocytes (cDNA injection)
# Method: • Acetylcholine chloride • 100 mM stock solution in bi-distilled water 1.3 Test system • Apparatus: Automated Injection and Recording Apparatus, HiQScreen • Species of donor animals: Xenopus • Strain of animals: Laevis • Origin (supplier) of animals: HiQScreen Sàrl, Geneva • Body Weight of animals: 150 g to 300 g • Animal maintenance 3 to 5 per vivarium • Room temperature: 20-22° C. • Lighting times: Vivarium were exposed to daylight with additional artificial lighting (6 am-8 pm in summer; 8 am-7 pm in winter). • Food: Food pellets, ad libitum • Source of biological material • and isolation procedure: Abdominal incision to remove ovaries • Experimental conditions in Oocyte incubation: Barth solution containing in mM NaCl 88, • vitro: […] OR2 medium containing in mM: […] Two-electrode voltage clamp, using proprietary automated system equipped with a Geneclamp amplifier (Axon Instrument, Foster City, Calif., USA), or HiClamp (Multichannel Systems, Germany) Abbreviations: Ach, Acetylcholine; nAChR, Nicotinic acetylcholine receptor; SEM, Standard error of the mean; PAM, Positive allosteric modulator All experiments were carried out at human nAChRs expressed in Xenopus oocytes using the method of cDNA expression. Xenopus oocytes were prepared and injected using standard procedures. Briefly, ovaries were harvested from Xenopus Laevis females that have been deeply anesthetized by cooling at 4° C. and Tricaine methanesulfonate (MS-222 at a concentration of 150 mg/L) in sodium bicarbonate (300 mg/L). Once anesthetized the animal was decapitated and pithed following the rules of animal rights from the Geneva canton. […] All recordings were performed at 18° C. and cells superfused with OR2 medium containing in mM: […] Currents evoked by ACh or other agonists were recorded using an automated process equipped with standard two-electrode voltage-clamp configuration (TEVC). Data were captured and analyzed using a HiQScreen proprietary data acquisition and analysis software running under Matlab (Mathworks Inc.). […] Compounds were dissolved in OR2 as stock solution (1 mM) and the final dilution to the desired concentration was made on the day of the experiment. Injections of cDNAs encoding for the human alpha4beta2, were performed in at least 95 oocytes were performed using a proprietary automated injection device (Hogg et al., J. Neurosci. Methods, 2008) and receptor expression examined at least two days later. Oocytes were poked with two electrodes and their membrane potential maintained, unless indicated, at −80 mV throughout the experiment. A protocol to determine the allosteric modulation at the alpha4beta2 nAChRs in the oocytes expressing the receptor was developed. Oocytes expressing alpha4beta2 nAChRs were exposed to increasing concentrations of ACh while the response was evaluated. This was repeated with the addition of a fixed concentration of the allosteric modulator. The current evoked from the exposure to the agonist with the modulator was recorded and compared to currents evoked in the absence of the modulator. To assess the effects of positive allosteric modulators (Br-PBTC and NS-9283) a protocol of determination of the concentration activation curve in absence and presence of the PAM was designed. […] To assess the positive allosteric modulator effects of NS-9283 at the compound 1 hemi-galactarate dihydrate the same experimental protocol was conducted using 1 μM of the modulator. […] To further evaluate the PAM effects, the modulation was measured either as a first application and compared versus the subsequent agonist evoked response or, vice versa, by first exposing the cell to the agonist alone and then to the PAM and the agonist applied during a sustained PAM exposure. […] The same experiment was then conducted for compound 1 hemi-galactarate dihydrate as the agonist and Br-PBTC as the modulator or NS-9283 as the modulator.
# [2] = target: T1, human alpha4beta2 nAChRs; assay: Desensitization by sustained (1 hour) agonist exposure and recovery, without and with PAM, Xenopus oocytes (Example 1)
# [3] = target: T2, human nAChR alpha3beta4 (Homo sapiens, UniProt P30926+P32297); assay: Agonist activity, two-electrode voltage clamp in Xenopus oocytes (Examples 2 and 5); details: for agonist character: versus ACh response, mono-citrate
# T2 construct: expressed in transfected cells; host or cells: Xenopus laevis oocytes (cDNA injection)
# Method: (§1) All experiments were carried out at human nAChRs expressed in Xenopus oocytes using the method of cDNA expression. Xenopus oocytes were prepared and injected using standard procedures.
# (§2) Briefly, ovaries were harvested from Xenopus Laevis females that have been deeply anesthetized by cooling at 4° C. and Tricaine methanesulfonate (MS-222 at a concentration of 150 mg/L) in sodium bicarbonate (300 mg/L). Once anesthetized the animal was decapitated and pithed following the rules of animal rights from the Geneva canton. A small piece of ovary was isolated for immediate preparation while the remaining part was placed at 4° C. in a sterile Barth solution containing in mM NaCl 88, KCl 1, NaHCO32.4, HEPES 10, MgSO4.7H2O 0.82, Ca(NO3)2.4H2O 0.33, CaCl2.6H2O 0.41, at pH 7.4, and supplemented with 20 μg/ml of kanamycin, 100 unit/ml penicillin. All recordings were performed at 18° C. and cells superfused with OR2 medium containing in mM: NaCl 88, KCl 2.5, HEPES 5, CaCl2.2H2O 1.8, MgCl2.6H2O 1, pH 7.4.
# (§3) Currents evoked by ACh or other agonists were recorded using an automated process equipped with standard two-electrode voltage-clamp configuration (TEVC). Data were captured and analyzed using a HiQScreen proprietary data acquisition and analysis software running under Matlab (Mathworks Inc.).
# (§4) See Example 1. […] The test concentration of acetylcholine chloride was 1280 micromolar.
# (§5) Injections of cDNAs encoding for the human alpha3beta4, alpha3alpha5beta4, alpha4beta2, and alpha7 were performed in at least 95 oocytes were performed using a proprietary automated injection and receptor expression examined at least two days later. Oocytes were poked with two electrodes and their membrane potential maintained, unless indicated, at −80 mV throughout the experiment.
# (§6) A protocol to determine agonistic activity in the oocytes expressing the nAChRs was developed. The cells were exposed to a series of increasing concentrations of a compound agonist for 10 seconds each at two minute intervals. The current evoked from exposure to the agonist at each concentration was recorded. For oocytes expressing alpha7 nAChRs, exposure to the agonist was reduced to 5 seconds. This process was repeated for each agonist tested against each type of nAChR expressing cell.
# (§7) To evaluate the agonistic properties of compound 1 hemi-galactarate dihydrate a protocol of brief exposures to a series of growing concentrations of compound 1 hemi-galactarate dihydrate was used.
# (§8) Agonist Preparation: See Example 1. […] The test concentration of acetylcholine chloride was 1280 micromolar.
# as §5, with “Experimental Procedures: Injections” for “Injections”, “alpha4beta2, alpha4alpha6beta2,” for “alpha4beta2,”, “oocytes” for “oocytes were performed”, “injection device. Cellular” for “injection and”, “expression was” for “expression”
# as §6, with “developed. Oocytes expressing a nAChR subtype were exposed to a brief test pulse of acetylcholine (1280 micromolar) while the holding current and response was evaluated. Cells displaying robust currents were washed for 90 seconds.” for “developed.”, “were then” for “were”, “nAChR” for “compound”, “intervals. The nAChR agonist test concentrations were 0.1, 0.3, 1, 3, 10, 30, 100, 300 (micromolar).” for “intervals.”
# [4] = target: T3, human nAChR alpha3alpha5beta4 (Homo sapiens, UniProt P30532+P30926+P32297); assay: as above; details: for agonist character: versus ACh response, mono-citrate
# T3 construct: expressed in transfected cells; host or cells: Xenopus laevis oocytes (cDNA injection)
# Method: as §1, §2, §3, §4, §5, §6, §7, §8
# as §5, with “Experimental Procedures: Injections” for “Injections”, “alpha4beta2, alpha4alpha6beta2,” for “alpha4beta2,”, “oocytes” for “oocytes were performed”, “injection device. Cellular” for “injection and”, “expression was” for “expression”
# as §6, with “developed. Oocytes expressing a nAChR subtype were exposed to a brief test pulse of acetylcholine (1280 micromolar) while the holding current and response was evaluated. Cells displaying robust currents were washed for 90 seconds.” for “developed.”, “were then” for “were”, “nAChR” for “compound”, “intervals. The nAChR agonist test concentrations were 0.1, 0.3, 1, 3, 10, 30, 100, 300 (micromolar).” for “intervals.”
# [5] = target: T4, human nAChR alpha4beta2 (Homo sapiens, UniProt P17787+P43681); assay: as above; details: for agonist character: versus ACh response
# T4 construct: expressed in transfected cells; host or cells: Xenopus laevis oocytes (cDNA injection)
# Method: as §1, §2, §3, §4, §5, §6, §7, §8
# as §5, with “Experimental Procedures: Injections” for “Injections”, “alpha4beta2, alpha4alpha6beta2,” for “alpha4beta2,”, “oocytes” for “oocytes were performed”, “injection device. Cellular” for “injection and”, “expression was” for “expression”
# as §6, with “developed. Oocytes expressing a nAChR subtype were exposed to a brief test pulse of acetylcholine (1280 micromolar) while the holding current and response was evaluated. Cells displaying robust currents were washed for 90 seconds.” for “developed.”, “were then” for “were”, “nAChR” for “compound”, “intervals. The nAChR agonist test concentrations were 0.1, 0.3, 1, 3, 10, 30, 100, 300 (micromolar).” for “intervals.”
# [6] = target: T5, human nAChR alpha7 (Homo sapiens, UniProt P36544); assay: as above; details: for percent of the maximal ACh-evoked current: at 300 μM (300 micromolar) agonist; for percent of the maximal ACh-evoked current / agonist character: mono-citrate; for agonist character: versus ACh response
# T5 construct: expressed in transfected cells; host or cells: Xenopus laevis oocytes (cDNA injection)
# Method: as §1, §2, §3, §4, §5, §6, §7, §8
# as §5, with “Experimental Procedures: Injections” for “Injections”, “alpha4beta2, alpha4alpha6beta2,” for “alpha4beta2,”, “oocytes” for “oocytes were performed”, “injection device. Cellular” for “injection and”, “expression was” for “expression”
# as §6, with “developed. Oocytes expressing a nAChR subtype were exposed to a brief test pulse of acetylcholine (1280 micromolar) while the holding current and response was evaluated. Cells displaying robust currents were washed for 90 seconds.” for “developed.”, “were then” for “were”, “nAChR” for “compound”, “intervals. The nAChR agonist test concentrations were 0.1, 0.3, 1, 3, 10, 30, 100, 300 (micromolar).” for “intervals.”
# [7] = target: T6, human nAChR alpha4alpha6beta2 (Homo sapiens, UniProt P17787+P43681+Q15825); assay: Agonist activity, two-electrode voltage clamp in Xenopus oocytes (Example 5); details: for agonist character: versus ACh response, mono-citrate
# T6 construct: expressed in transfected cells; host or cells: Xenopus laevis oocytes (cDNA injection)
# Method: as §1, §2, §3, §8
# as §5, with “Experimental Procedures: Injections” for “Injections”, “alpha4beta2, alpha4alpha6beta2,” for “alpha4beta2,”, “oocytes” for “oocytes were performed”, “injection device. Cellular” for “injection and”, “expression was” for “expression”
# as §6, with “developed. Oocytes expressing a nAChR subtype were exposed to a brief test pulse of acetylcholine (1280 micromolar) while the holding current and response was evaluated. Cells displaying robust currents were washed for 90 seconds.” for “developed.”, “were then” for “were”, “nAChR” for “compound”, “intervals. The nAChR agonist test concentrations were 0.1, 0.3, 1, 3, 10, 30, 100, 300 (micromolar).” for “intervals.”
# [8] = presence vs absence of 1 μM PAM
# T5 sequence (P36544 23-502): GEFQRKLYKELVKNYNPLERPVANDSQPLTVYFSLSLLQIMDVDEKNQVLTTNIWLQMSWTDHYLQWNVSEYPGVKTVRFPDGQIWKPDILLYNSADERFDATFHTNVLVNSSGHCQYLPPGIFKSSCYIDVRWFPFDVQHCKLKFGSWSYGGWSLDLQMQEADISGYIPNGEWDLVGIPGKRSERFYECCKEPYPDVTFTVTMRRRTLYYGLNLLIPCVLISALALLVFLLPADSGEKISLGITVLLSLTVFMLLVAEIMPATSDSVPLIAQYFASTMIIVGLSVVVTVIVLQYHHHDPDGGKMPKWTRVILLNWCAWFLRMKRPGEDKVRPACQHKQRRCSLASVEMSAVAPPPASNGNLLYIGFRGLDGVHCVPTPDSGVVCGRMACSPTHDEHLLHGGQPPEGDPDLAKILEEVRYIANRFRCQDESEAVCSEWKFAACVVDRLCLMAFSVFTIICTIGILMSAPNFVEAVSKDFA
# T6 sequence (P43681 29-627 limits assumed): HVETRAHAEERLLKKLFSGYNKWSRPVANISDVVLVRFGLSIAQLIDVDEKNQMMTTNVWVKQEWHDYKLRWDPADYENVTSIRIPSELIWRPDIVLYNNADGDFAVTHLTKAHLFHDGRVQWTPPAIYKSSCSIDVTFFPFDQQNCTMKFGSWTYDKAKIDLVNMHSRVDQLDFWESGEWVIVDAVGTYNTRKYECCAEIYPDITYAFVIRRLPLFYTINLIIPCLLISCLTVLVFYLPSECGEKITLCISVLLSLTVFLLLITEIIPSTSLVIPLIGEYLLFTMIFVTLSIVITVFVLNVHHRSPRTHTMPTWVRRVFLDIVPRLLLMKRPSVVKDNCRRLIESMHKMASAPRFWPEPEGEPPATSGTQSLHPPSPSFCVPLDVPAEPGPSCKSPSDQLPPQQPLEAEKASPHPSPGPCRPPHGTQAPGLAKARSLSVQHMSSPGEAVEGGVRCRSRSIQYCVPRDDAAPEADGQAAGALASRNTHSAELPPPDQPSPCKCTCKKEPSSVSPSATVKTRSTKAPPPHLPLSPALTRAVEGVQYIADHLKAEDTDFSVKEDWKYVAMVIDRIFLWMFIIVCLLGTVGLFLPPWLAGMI
# T6 sequence (Q15825 26-494): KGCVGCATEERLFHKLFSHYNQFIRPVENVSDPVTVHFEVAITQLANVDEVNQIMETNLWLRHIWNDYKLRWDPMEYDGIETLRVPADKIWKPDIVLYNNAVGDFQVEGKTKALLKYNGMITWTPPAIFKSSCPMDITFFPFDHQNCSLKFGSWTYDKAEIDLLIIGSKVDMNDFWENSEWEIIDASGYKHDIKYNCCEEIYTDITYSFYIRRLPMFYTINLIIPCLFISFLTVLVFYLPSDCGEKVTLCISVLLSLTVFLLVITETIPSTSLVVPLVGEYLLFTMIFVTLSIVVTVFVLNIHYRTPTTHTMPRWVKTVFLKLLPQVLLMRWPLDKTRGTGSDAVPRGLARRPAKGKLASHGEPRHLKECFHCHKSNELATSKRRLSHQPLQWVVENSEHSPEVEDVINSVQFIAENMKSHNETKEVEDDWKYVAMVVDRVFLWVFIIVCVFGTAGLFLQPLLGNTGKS
# T6 sequence (P17787 26-502): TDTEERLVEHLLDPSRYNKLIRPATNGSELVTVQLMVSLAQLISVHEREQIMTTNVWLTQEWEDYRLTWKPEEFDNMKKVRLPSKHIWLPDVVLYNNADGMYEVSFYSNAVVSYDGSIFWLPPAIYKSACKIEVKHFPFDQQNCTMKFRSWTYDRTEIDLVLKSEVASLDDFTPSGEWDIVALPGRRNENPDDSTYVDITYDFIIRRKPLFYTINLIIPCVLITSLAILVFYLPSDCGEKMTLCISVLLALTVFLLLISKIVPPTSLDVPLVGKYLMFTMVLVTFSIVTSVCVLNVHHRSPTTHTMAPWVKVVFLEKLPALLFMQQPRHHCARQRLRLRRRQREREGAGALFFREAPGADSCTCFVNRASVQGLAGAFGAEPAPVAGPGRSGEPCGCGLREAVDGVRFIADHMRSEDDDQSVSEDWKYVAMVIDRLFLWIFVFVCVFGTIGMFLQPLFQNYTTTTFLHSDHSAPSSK
# T4 sequence (P43681 29-627 limits assumed): as the sequence (P43681 29-627 limits assumed) above
# T4 sequence (P17787 26-502): as the sequence (P17787 26-502) above
# T1 sequence (P43681 29-627 limits assumed): as the sequence (P43681 29-627 limits assumed) above
# T1 sequence (P17787 26-502): as the sequence (P17787 26-502) above
# T3 sequence (P32297 32-505): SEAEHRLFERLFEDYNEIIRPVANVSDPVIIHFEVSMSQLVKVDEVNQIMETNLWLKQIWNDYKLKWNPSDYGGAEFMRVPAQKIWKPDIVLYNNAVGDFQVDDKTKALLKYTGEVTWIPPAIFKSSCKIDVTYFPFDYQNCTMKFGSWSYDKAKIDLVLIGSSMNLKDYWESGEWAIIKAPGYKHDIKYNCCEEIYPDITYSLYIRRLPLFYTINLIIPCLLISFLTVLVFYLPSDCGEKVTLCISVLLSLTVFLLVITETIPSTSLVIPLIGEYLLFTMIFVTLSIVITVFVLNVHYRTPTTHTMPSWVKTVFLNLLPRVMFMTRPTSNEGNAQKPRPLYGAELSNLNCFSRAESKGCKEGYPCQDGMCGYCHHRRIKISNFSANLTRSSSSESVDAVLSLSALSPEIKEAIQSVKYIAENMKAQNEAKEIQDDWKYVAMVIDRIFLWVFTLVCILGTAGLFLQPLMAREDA
# T3 sequence (P30532 23-468): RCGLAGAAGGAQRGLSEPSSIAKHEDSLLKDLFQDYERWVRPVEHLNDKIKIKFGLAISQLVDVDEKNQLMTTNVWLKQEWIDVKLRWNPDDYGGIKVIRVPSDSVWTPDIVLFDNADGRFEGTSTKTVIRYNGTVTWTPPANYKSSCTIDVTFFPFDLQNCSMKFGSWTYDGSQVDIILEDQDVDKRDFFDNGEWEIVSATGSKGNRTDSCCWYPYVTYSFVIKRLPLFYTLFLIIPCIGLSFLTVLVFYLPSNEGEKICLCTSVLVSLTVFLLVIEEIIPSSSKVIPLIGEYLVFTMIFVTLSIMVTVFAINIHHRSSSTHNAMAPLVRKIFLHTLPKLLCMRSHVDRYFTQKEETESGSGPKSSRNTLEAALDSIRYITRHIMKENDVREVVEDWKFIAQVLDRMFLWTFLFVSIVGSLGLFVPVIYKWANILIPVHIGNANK
# T3 sequence (P30926 22-498): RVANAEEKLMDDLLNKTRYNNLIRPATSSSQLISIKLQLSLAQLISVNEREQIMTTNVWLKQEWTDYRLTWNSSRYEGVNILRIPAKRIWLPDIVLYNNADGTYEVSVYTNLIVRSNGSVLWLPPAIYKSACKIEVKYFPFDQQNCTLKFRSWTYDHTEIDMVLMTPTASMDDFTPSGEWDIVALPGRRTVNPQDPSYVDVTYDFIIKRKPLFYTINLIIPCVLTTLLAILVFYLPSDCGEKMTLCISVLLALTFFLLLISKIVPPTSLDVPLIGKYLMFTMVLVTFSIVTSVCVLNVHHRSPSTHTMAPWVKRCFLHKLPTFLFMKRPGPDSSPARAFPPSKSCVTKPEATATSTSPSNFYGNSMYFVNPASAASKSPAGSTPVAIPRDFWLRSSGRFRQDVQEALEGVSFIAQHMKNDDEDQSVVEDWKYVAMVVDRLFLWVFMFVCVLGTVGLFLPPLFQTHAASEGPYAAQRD
# T2 sequence (P32297 32-505): as the sequence (P32297 32-505) above
# T2 sequence (P30926 22-498): as the sequence (P30926 22-498) above
smiles,measurement,setting,value
"N#Cc1cccc(-c2nc(-c3cccnc3)no2)c1 [NS-9283, 3-[3-(3-Pyridinyl)-1,2,4-oxadiazol-5-yl]benzonitrile]",positive allosteric modulator activity in the presence of compound 1 hemi-galactarate dihydrate,[1]; 1 μM PAM,acts as a positive allosteric modulator; also recorded: potentiate the agonistic activity
same,dependence of potentiation on the order of agonist and PAM application,[1]; agonist compound 1 hemi-galactarate dihydrate,independent on the exposure protocol
same,maximal current evoked by compound 1 hemi-galactarate dihydrate,[1]; [8],no significant increase
same,shift of the concentration activation curve to compound 1 hemi-galactarate dihydrate,[1]; [8],significant shift to the left
same,effect of PAM on recovery from varenicline tartrate desensitization,"[2]; 300 μM varenicline tartrate 1 hour, 1 μM PAM, wash of 3 hours",failed to significantly modify the recovery time course
same,effect of PAM on amplitude of the current evoked by varenicline tartrate,"[2]; 300 μM varenicline tartrate, 1 μM PAM",enhanced the response
same,effect of PAM on profile of compound 1 hemi-galactarate dihydrate desensitization and recovery,"[2]; 1 mM agonist, co-application of 1 μM modulator",minimal effect
"C(=C\[C@H]1CCNC1)/c1cncnc1 [compound 1 citrate, (R)-5-((E)-2-pyrrolidin-3-ylvinyl)pyrimidine mono-citrate]",EC50,[3]; read-out: EC50,34.9 ± 4.53 µM
same,agonist character,[3]; listed as Compound 1 citrate,almost as a full agonist
same,agonist character,[3],almost full agonist
same,EC50,"[4]; Example 5, read-out: EC50",83 ± 9.05 µM
same,agonist character,[4]; listed as Compound 1 citrate,almost as a full agonist
same,agonist character,[4],almost full agonist
same,EC50,"[5]; Example 5, read-out: EC50",13.5 ± 2.06 µM
same,effect on the subsequent ACh-evoked current,"[5]; after exposure to the agonist concentration series, mono-citrate",Significant inhibition
same,agonist character,"[5]; listed as Compound 1 citrate, mono-citrate",almost as a full agonist
same,agonist character,[5]; mono-citrate,almost full agonist
same,fraction of the maximal ACh-evoked current,[6]; 300 micromolar concentration,25%
same,EC50,"[6]; Example 5, only an estimation",126 ± 28.5 µM
same,percent of the maximal ACh-evoked current,[6]; listed as Compound 1 citrate,25%
same,percent of the maximal ACh-evoked current,[6],25%
same,agonist character,[6]; listed as Compound 1 citrate,poor agonist
same,agonist character,[6],weak partial agonist
same,EC50,[7],13.1 ± 3.68 µM
same,agonist character,[7]; listed as Compound 1 citrate,almost as a full agonist
same,agonist character,[7],almost full agonist
